Data published in patent publication US8497265B2, “Heteroaryloxyheterocyclyl compounds as PDE10 inhibitors” (Amgen Inc., priority 2010, dated 2013).

Target: PDE10 (Mus musculus, UniProt Q8CA95)
Assay: PDE10 enzyme inhibition (IMAP TR-FRET assay)
Assay type: biochemical
Details: Table 8A
Procedure: MPDE10A7 Enzyme Activity and Inhibition
Enzyme Activity. An IMAP TR-FRET assay was used to analyze the enzyme activity (Molecular Devices Corp., Sunnyvale Calif.). 5 μL, of serial diluted PDE10A (BPS Bioscience, San Diego, Calif.) or tissue homogenate was incubated with equal volumes of diluted fluorescein labeled cAMP or cGMP for 60 min in 384-well polystyrene assay plates (Corning, Corning, N.Y.) at room temperature. After incubation, the reaction was stopped by adding 60 μL, of diluted binding reagents and was incubated for 3 hours to overnight at room temperature. The plates were read on an Envision (Perkin Elmer, Waltham, Mass.) for time resolved fluorescence resonance energy transfer. The data were analyzed with GraphPad Prism (La Jolla, Calif.).
Enzyme Inhibition. To check the inhibition profile, 5 μL of serial diluted compounds were incubated with 5 μL of diluted PDE10 enzyme (BPS Bioscience, San Diego, Calif.) or tissue homogenate in a 384-well polystyrene assay plate (Corning, Corning, N.Y.) for 30 min at room temperature. […] The reaction was stopped by adding 60 μL of diluted binding reagents and plates were read on an Envision (Perkin Elmer, Waltham, Mass.) for time resolved fluorescence resonance energy transfer. The data were analyzed with GraphPad Prism (La Jolla, Calif.).

Sequence of PDE10 (Q8CA95 whole entry, looked up): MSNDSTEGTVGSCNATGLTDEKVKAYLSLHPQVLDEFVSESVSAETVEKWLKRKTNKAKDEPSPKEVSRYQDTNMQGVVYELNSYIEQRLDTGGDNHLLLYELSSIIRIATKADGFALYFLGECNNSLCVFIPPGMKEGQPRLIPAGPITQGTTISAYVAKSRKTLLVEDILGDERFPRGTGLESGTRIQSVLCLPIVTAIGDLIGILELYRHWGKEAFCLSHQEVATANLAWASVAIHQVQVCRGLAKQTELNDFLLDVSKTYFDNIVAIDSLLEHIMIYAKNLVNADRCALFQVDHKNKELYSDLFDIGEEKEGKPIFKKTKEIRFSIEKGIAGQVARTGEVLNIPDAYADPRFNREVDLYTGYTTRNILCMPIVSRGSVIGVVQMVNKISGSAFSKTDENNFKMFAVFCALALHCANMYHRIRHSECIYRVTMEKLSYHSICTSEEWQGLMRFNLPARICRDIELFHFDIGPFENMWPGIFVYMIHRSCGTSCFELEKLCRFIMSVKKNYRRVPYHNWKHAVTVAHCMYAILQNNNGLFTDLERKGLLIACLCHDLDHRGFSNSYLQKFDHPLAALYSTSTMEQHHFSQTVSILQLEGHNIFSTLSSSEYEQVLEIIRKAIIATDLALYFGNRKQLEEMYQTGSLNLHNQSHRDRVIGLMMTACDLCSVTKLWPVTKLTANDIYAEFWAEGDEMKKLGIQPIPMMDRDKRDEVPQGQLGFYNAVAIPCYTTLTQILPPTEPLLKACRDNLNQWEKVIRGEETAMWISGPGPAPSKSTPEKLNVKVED

Substance: 1-(4-(3-((1-(quinolin-2-yl)azetidin-3-yl)oxy)pyrazin-2-yl)phenyl)ethanone [Example 10.26]
- IC50: 0.0244 µM
